For assay [1], the system named is 8A10 anti-taxane IgG2a antibody. The experiment in a line: Paclitaxel antibody cross-reactivity, IC50 towards taxanes (8A10). The class given is binding, mouse. Particulars: antibody 8A10. From the text: (§1) The antibodies of the invention were generated by immunizing mice with either TAXOL® or baccatin conjugated to KLH. The antibodies are summarized as: 3C6 anti TAXOL® IgG2a,k, 3H5 anti-baccatin III IgG1, 8A10 anti-taxane IgG2a. Cross-reactivity profile of 3C6, 3H5, and 8A10 antibodies are shown by their IC50 values towards various taxanes in Table 1.

For assay [2], the system named is 3C6 anti TAXOL IgG2a,k antibody. Nature of the assay: Paclitaxel antibody cross-reactivity, IC50 towards taxanes (3C6). It is filed as binding, mouse. Particulars: antibody 3C6; read-out: IC50 towards taxane, 3C6.
Source text: as §1

Assay [3] has as its system 3H5 anti-baccatin III IgG1 antibody. The experiment in a line: Paclitaxel antibody cross-reactivity, IC50 towards taxanes (3H5). It is filed as binding, mouse. Particulars: antibody 3H5; read-out: IC50 towards taxane, 3H5.
Source text: as §1

For another assay, the target named is BSA-paclitaxel antigen (Bos taurus, UniProt P02769). Nature of the assay: Direct binding ELISA of intact IgGs to BSA-paclitaxel antigen (FIG. 4). Particulars: read-out: apparent Kd. How it is done: FIG. 4 is a graph illustrating direct binding of intact IgGs (8A10 and 3C6) of the invention to a BSA-paclitaxel antigen on an ELISA.
Antibody affinity. 50 μL of BSA-paclitaxel antigen at a concentration of 3.5 μg/mL in 1× PBS was bound to a plate and incubated at 4° C. overnight. The plate was washed four ties with PBS/0.05% Tween 20. The plate was blocked for 2 hours with 1% BSA in PBS/0.05% Tween 20 at room temperature. The plate was washed four ties with PBS/0.05% Tween 20. 50 μL of antibody sample (8A10 and 3C6) was bound (start at 300 nM and titer down by 3s). The plate was washed four times with PBS/0.05% Tween 20. 50 μL of goat anti mIgG horseradish peroxidase (1:5000 dilution) was bound and then 50 μL of substrate solution TMB was added and the color allowed to develop. The reaction was stopped with 50 μL 1M HCl and the optical density was read at 450 nm.
On the technique in general: ELISA stands for enzyme-linked immunosorbent assay.

Assay [4] addresses T1, BSA-paclitaxel (Bos taurus, UniProt P02769). The experiment in a line: Biacore T-200 SPR, antibody on the chip. The class given is binding. The settings on record: Biacore T-200, antibody on the chip. For orientation: In SPR one partner is held on a chip, and binding of the other changes the refractive index at the surface.
The next assay deals with BSA-paclitaxel (BSA-Ag) (Bos taurus, UniProt P02769). Nature of the assay: Biacore 3000 SPR kinetic analysis, antigen on the chip. The class given is binding. Particulars: for Dissociation rate constant (kd) / ka: 25° C. How it is done: In this example, a method for determining antibody properties is described. The methods were carried out by Precision Antibody, Inc. (Columbia, Md.) using a Biacore Assay.
Binding experiments were performed on a Biacore 3000 instrument (GE, Pittsburgh, Pa.) at 25° C. Approximately 13,000 RU of anti-BSA ab (Life Technologies, A11133, lot 1637270) was directly immobilized on flow cell 2 of CM5 chip by amine coupling (EDC/NHS). 110-120 RU of BSA-paclitaxel (BSA-Ag) was captured. Flow cell 1 was treated the same way but without the ligand and used as a blank surface for reference subtraction. The unoccupied sites were blocked with 1 M ethanol amine. Analytes Ab 1 (8A10) and Ab2 (3C6) were flowed over the chip at variable concentrations. Binding of antigen to the antibodies was monitored in real time to obtain on (ka) and off (kd) rates. The equilibrium constant (KD) was calculated from the observed ka and kd.
Full kinetic analysis was performed using analyte concentrations as indicated with 2-fold serial dilutions. The starting concentration was 200 nM, followed by 100, 50, 25, 12.5, and 0 nM. The 100 nM concentration was run in duplicates to confirm the reproducibility of the assay.
The assay buffer was 10 mM HEPES buffer (pH 7.4), 150 mM NaCl, 3 mM EDTA, 0.05% P20 (polyoxyethylenesorbitan). The regeneration buffer was 10 mM Glycine buffer (pH 2.0). The conjugation buffer was 10 mM sodium acetate buffer (pH 5.0). The flow rate used for capturing the ligand was 1 μL/min. The flow rate for kinetics analysis was 50 μL/min.
Chi square (χ^2) analysis was carried out between the actual sensorgram and the sensorgram generated from the BlAnalysis software to determine the accuracy of the analysis. A χ^2 value within 1-2 is considered significant (accurate) and below 1 is highly significant (highly accurate).

Assay [5] addresses T1, BSA-paclitaxel. The experiment in a line: Biacore 3000 SPR, antibody on the chip. It is filed as binding. Particulars: Biacore 3000, antibody on the chip (3C6: single point).
The mark [6] stands for this setting: BSA-Ag (110RU) ligand, full kinetic analysis.
Setting [7] is: BSA-Ag (110RU) ligand, calculated from ka and kd.
Setting [8] is: Biacore 3000, antigen on the chip.

Some results are limits rather than exact numbers.

The values that follow come from US20180136242A1 (Autotelic LLC, priority 2014, published 2018).

BSA-paclitaxel (BSA-Ag), sequence (P02769 25-607): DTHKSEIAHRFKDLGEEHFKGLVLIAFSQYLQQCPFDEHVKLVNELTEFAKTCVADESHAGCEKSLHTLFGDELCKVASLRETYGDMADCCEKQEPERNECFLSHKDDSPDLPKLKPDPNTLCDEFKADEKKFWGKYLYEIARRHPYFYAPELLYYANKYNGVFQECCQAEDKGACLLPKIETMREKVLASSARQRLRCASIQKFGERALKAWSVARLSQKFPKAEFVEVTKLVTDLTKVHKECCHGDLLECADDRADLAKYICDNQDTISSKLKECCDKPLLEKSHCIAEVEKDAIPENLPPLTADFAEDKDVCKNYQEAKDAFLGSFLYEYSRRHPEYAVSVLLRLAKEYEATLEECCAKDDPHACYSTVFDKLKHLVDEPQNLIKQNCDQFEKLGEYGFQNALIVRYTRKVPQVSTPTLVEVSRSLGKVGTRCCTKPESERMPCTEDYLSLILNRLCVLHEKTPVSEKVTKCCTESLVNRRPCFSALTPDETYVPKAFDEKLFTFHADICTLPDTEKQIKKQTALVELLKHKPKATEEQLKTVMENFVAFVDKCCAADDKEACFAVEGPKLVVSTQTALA
T1 sequence (P02769 25-607): as above
BSA-paclitaxel antigen, sequence (P02769 25-607): as above

Consider `CC(=O)O[C@H]1C(=O)[C@@]2(C)[C@H]([C@H](OC(=O)c3ccc(C(F)(F)F)cc3)[C@]3(O)C[C@H](OC(=O)[C@H](O)[C@@H](NC(=O)c4ccccc4)c4ccccc4)C(C)=C1C3(C)C)[C@]1(OC(C)=O)CO[C@@H]1C[C@@H]2O` [2-debenzoyl-2-(p-trifluoromethylbenzoyl)taxol], for which the half-maximal inhibitory concentration (IC50) in assay [1], in assay [2] and in assay [3] was over 293 nM in each case.
Take `CC(=O)O[C@@]12CO[C@@H]1C[C@@H](O)[C@@]1(C)C(=O)[C@H](O)C3=C(C)[C@@H](O)C[C@@](O)([C@@H](OC(=O)c4ccccc4)[C@H]21)C3(C)C` [7-epi-10-deacetylbaccatin III]: the IC50 is 27 nM in assay [1], over 469 nM in assay [2] and 150 nM in assay [3].
With `CC(=O)O[C@@]12CO[C@@H]1C[C@H](O)[C@@]1(C)C(=O)[C@H](O)C3=C(C)[C@@H](OC(=O)[C@H](O)[C@@H](NC(=O)c4ccccc4)c4ccccc4)C[C@@](O)([C@@H](OC(=O)c4ccccc4)[C@H]21)C3(C)C` [7-epi-10-deacetyltaxol], the IC50 in assay [1] is 15 nM; in assay [2], 25 nM; in assay [3], over 333 nM.
As to `CC(=O)O[C@H]1C(=O)[C@@]2(C)[C@H]([C@H](OC(=O)c3ccccc3)[C@]3(O)C[C@H](OC(=O)[C@H](O)[C@@H](NC(=O)c4ccccc4)c4ccccc4)C(C)=C1C3(C)C)[C@]1(OC(C)=O)CO[C@@H]1C[C@@H]2O` [7-epi-taxol], the concentration for half-maximal inhibition (IC50) in assay [1] is 50 nM; in assay [2], 80 nM; in assay [3], over 316 nM.
For `CC(=O)O[C@@]12CO[C@@H]1C[C@H](O[C@@H]1OC[C@@H](O)[C@H](O)[C@H]1O)[C@@]1(C)C(=O)[C@H](O)C3=C(C)[C@@H](OC(=O)[C@H](O)[C@@H](NC(=O)c4ccccc4)c4ccccc4)C[C@@](O)([C@@H](OC(=O)c4ccccc4)[C@H]21)C3(C)C` [7-xylosyl-10-deacetyltaxol] the same measures were 17 nM, 30 nM and over 286 nM.
As to `CC(=O)O[C@@]12CO[C@@H]1C[C@H](O)[C@@]1(C)C(=O)[C@H](O)C3=C(C)[C@@H](O)C[C@@](O)([C@@H](OC(=O)c4ccccc4)[C@H]21)C3(C)C` [10-deacetylbaccatin III], the IC50 in assay [1] was 21 nM; in assay [2], over 551 nM; in assay [3], 230 nM.
For `CC(=O)O[C@@]12CO[C@@H]1C[C@H](O)[C@@]1(C)C(=O)[C@H](O)C3=C(C)[C@@H](OC(=O)[C@H](O)[C@@H](NC(=O)c4ccccc4)c4ccccc4)C[C@@](O)([C@@H](OC(=O)c4ccccc4)[C@H]21)C3(C)C` [10-deacetyltaxol], in that order: 10 nM, 15 nM and over 333 nM.
As for `CC(=O)OC[C@@]1(O)[C@H]2[C@H](OC(=O)c3ccccc3)[C@]3(O)C[C@H](OC(=O)[C@H](O)[C@@H](NC(=O)c4ccccc4)c4ccccc4)C(C)=C([C@@H](OC(C)=O)C(=O)[C@]2(C)[C@@H](O)C[C@@H]1O)C3(C)C` [20-acetoxy-4-deacetyl-5-epi-20,O-secotaxol], the IC50 in assay [1] is over 293 nM; in assay [2], over 310 nM; in assay [3], over 310 nM.
On to `CC(=O)O[C@H]1C(=O)[C@@]2(C)[C@H]([C@H](OC(=O)c3ccccc3)[C@]3(O)C[C@H](O)C(C)=C1C3(C)C)[C@]1(OC(C)=O)CO[C@@H]1C[C@@H]2O` [baccatin III], for which the results for the IC50 in assay [1], in assay [2] and in assay [3] were 12 nM, over 511 nM and 10 nM, respectively.
For `CC(=O)O[C@H]1C(=O)[C@]2(C)[C@H](O)C[C@H]3OC[C@@]3(OC(C)=O)[C@H]2[C@H](OC(=O)c2ccccc2)[C@]2(O)C[C@H](O)C(C)=C1C2(C)C` [baccatin V] the same measures were 10 nM, over 460 nM and 10 nM.
Turning to `C/C=C(\C)C(=O)N[C@@H](c1ccccc1)[C@@H](O)C(=O)O[C@H]1C[C@@]2(O)[C@@H](OC(=O)c3ccccc3)[C@@H]3[C@]4(OC(C)=O)CO[C@@H]4C[C@H](O)[C@@]3(C)C(=O)[C@H](OC(C)=O)C(=C1C)C2(C)C` [cephalomannine], the values for the IC50 in assay [1], in assay [2] and in assay [3] were 8 nM, 220 nM and over 325 nM, respectively.
In the case of `CC(=O)O[C@H]1C(=O)[C@@]2(C)[C@H]([C@H](OC(=O)c3ccccc3)[C@]3(O)C[C@H](OC(=O)[C@H](O)[C@@H](NC(=O)c4ccccc4)c4ccccc4)C(C)=C1C3(C)C)[C@]1(OC(C)=O)CO[C@@H]1C[C@@H]2O` [paclitaxel (TAXOL ®), paclitaxel], the 50% inhibitory concentration (IC50) was 7 nM in assay [1], 10 nM in assay [2] and over 316 nM in assay [3].

B1: 3C6 (antibody, V domains shown)
VH: EVQLQESGPSLVKPSQTLSLTCSVTGDSITSGYWNWIRKFPGNRLEYMGYISYSGSTYYNPSLKSRISITRDTSKNQYYLHLTSVTTEDTATYYCAQGDGAYWGQGTTLTVSS
VL: DVVMTQTPLSLPVSLGDQASISCRSRQSLVHSNGNTYLHWYLQKPGQSPKLLIYKVSNRFSGVPDRFSGSGSGTEFTLEISRVEAEDLGVYFCSQSTHVPPTFGGGTKLEIK
B1: the Kd with BSA-paclitaxel antigen was about 10 nM. Also, in the assay with BSA-paclitaxel [4], the Kd stood at 12 nM, the Off-rate is 2.2 × 10^−4, the On-rate was 1.8 × 10^4 and the Rmax was 112. In the assay with BSA-paclitaxel (BSA-Ag) (setting [6]), the “Dissociation rate constant (kd)” value worked out at 0.000967 s⁻¹, the ka worked out at 20500 M⁻¹ s⁻¹, the KA came to 2.12e+07 M⁻¹ and the Rmax was 15.6. Also, the Kd in the assay with BSA-paclitaxel (BSA-Ag) (setting [7]) was 47.2 nM. Besides, in the assay with BSA-paclitaxel (BSA-Ag) (setting [8]), the Kd came out at 47 nM, the Off-rate is 9.7 × 10^−4, the On-rate was 2.1 × 10^4 and the Rmax was 15.6. Also, in the assay with BSA-paclitaxel [5], the Kd worked out at 10 nM, the Off-rate is listed as 2.9 × 10^−4, the On-rate is reported as 2.8 × 10^4 and the Rmax is reported as 54.4.

B2: 8A10: anti-taxane IgG2a mouse monoclonal antibody; variable regions SEQ ID NOS: 2 and 4 (antibody, V domains shown)
VL: DIVMTQSQKFMSITLGERVSITCKPSQNVGSAVTWWQQKPGQSPKLLIYSASNRYTGVPDRFTGSGSGTDFTLTISNVQSEDLADYFCQQYSSYPYTFGGGTKLEIKR
VH: EVQLQQSGPELVKPGASVKISCKASGYTFTDSTMNWVKQSHGKSLEWIGEIDPNNGGTNYNQKFKGKATLTVDKSSSTAYMELRSLTSEDSAVYYCARGVWGQGTTLTVSS
modifications: mouse IgG2a constant regions
In the case of B2, in the assay with BSA-paclitaxel antigen, the Kd was about 10 nM. Besides, in the assay with BSA-paclitaxel [4], the Kd was determined as 3.6 nM, the Off-rate is on record as 8.7 × 10^−4, the On-rate is given as 2.4 × 10^5 and the Rmax was found to be 8.6. Also, in the assay with BSA-paclitaxel (BSA-Ag) (setting [6]), the “Dissociation rate constant (kd)” value came out at 0.000304 s⁻¹, the ka stood at 470000 M⁻¹ s⁻¹, the KA stood at 1.55e+09 M⁻¹ and the Rmax was 4.01. For the same molecule, the Kd in the assay with BSA-paclitaxel (BSA-Ag) (setting [7]) was 0.645 nM. Besides, in the assay with BSA-paclitaxel (BSA-Ag) (setting [8]), the Kd worked out at 0.65 nM, the Off-rate was 3.0 × 10^−4, the On-rate is reported as 4.7 × 10^5 and the Rmax is 4.0. For the same molecule, in the assay with BSA-paclitaxel [5], the Kd is 1.3 nM, the Off-rate is recorded as 2.0 × 10^−3, the On-rate is given as 1.6 × 10^6 and the Rmax is 3.6.

A word on the IC50: it is the concentration that gives 50% inhibition.
